Results as given in ChEMBL document CHEMBL1128195, “A novel class of cyclic beta-dicarbonyl leaving groups and their use in the design of benzisothiazolone human leukocyte elastase inhibitors” (J Med Chem, 1995).

Tests used:
in vitro [1] = conditions: human, blood
in vitro [2] = conditions: human, liver
Description: Half life in human liver at 37 degree C

half-life (in vitro [1]) [h]	half-life (in vitro [2]) [h]	Compound
2.33	1.22	COc1cc(C(C)C)c2c(c1)S(=O)(=O)N(COC(=O)c1c(Cl)cccc1Cl)C2=O
2.82	0.583	COc1cc(C(C)C)c2c(c1)S(=O)(=O)N(COC1=C(Cc3ccccc3)C(=O)OC1C)C2=O (configuration not stated)
< 0.25		COc1cc(C(C)C)c2c(c1)S(=O)(=O)N(COC1=CC(=O)c3ccccc31)C2=O
0.483		COc1cc(C(C)C)c2c(c1)S(=O)(=O)N(COC1=C(c3ccccc3)C(=O)OC1)C2=O
0.967	1.25	COc1cc(C(C)C)c2c(c1)S(=O)(=O)N(COC1=C(Cc3ccccc3)C(=O)OC1)C2=O
< 0.25		COc1cc(C(C)C)c2c(c1)S(=O)(=O)N(COC1=C(C)C(=O)CC1)C2=O
2.57	1.37	COc1cc(C(C)C)c2c(c1)S(=O)(=O)N(COC1=C(c3ccccc3)C(=O)OC1C)C2=O (configuration not stated)
6		COc1cc(C(C)C)c2c(c1)S(=O)(=O)N(COc1cc(=O)oc3ccccc13)C2=O
2.07		COc1cc(C(C)C)c2c(c1)S(=O)(=O)N(COc1nc3ccccn3c(=O)c1Br)C2=O
< 0.25		COc1cc(C(C)C)c2c(c1)S(=O)(=O)N(COC1=CC(=O)C1)C2=O
< 0.25		COc1cc(C(C)C)c2c(c1)S(=O)(=O)N(COc1cc(C)oc(=O)c1)C2=O
0.85		COc1cc(C(C)C)c2c(c1)S(=O)(=O)N(COc1cc(=O)n3c(n1)CCCC3)C2=O
< 0.25		COc1cc(C(C)C)c2c(c1)S(=O)(=O)N(COC1=CC(=O)OC1C)C2=O (configuration not stated)
< 0.25		COc1cc(C(C)C)c2c(c1)S(=O)(=O)N(COC1=C(Cl)C(=O)OC1)C2=O
3.83		CCC(C)c1cccc2c1C(=O)N(COc1nc3ccccn3c(=O)c1Cl)S2(=O)=O (configuration not stated)
0.233		COc1cc(C(C)C)c2c(c1)S(=O)(=O)N(COC1=CC(=O)N(Cc3ccccc3)C1)C2=O
< 0.25		COc1cc(C(C)C)c2c(c1)S(=O)(=O)N(COC1=CC(=O)OC1)C2=O
2.67		COc1cc(C(C)C)c2c(c1)S(=O)(=O)N(COc1nc3ccccn3c(=O)c1Cl)C2=O
< 0.25		COc1cc(C(C)C)c2c(c1)S(=O)(=O)N(COc1cc(C)oc(=O)c1Cl)C2=O
< 0.25		COc1cc(C(C)C)c2c(c1)S(=O)(=O)N(COc1cc(C)oc(=O)c1C(=O)c1ccccc1)C2=O
0.833		CC(C)c1cccc2c1C(=O)N(COc1nc3ccccn3c(=O)c1Cl)S2(=O)=O
5.83	1.72	COc1cc(C(C)C)c2c(c1)S(=O)(=O)N(COc1nc3ccccn3c(=O)c1C)C2=O
0.917		COc1cc(C(C)C)c2c(c1)S(=O)(=O)N(COC1=C(Cc3ccccc3)C(=O)CC1)C2=O
0.267		COc1cc(C(C)C)c2c(c1)S(=O)(=O)N(COC1=C(C)C(=O)CCC1)C2=O
< 0.25		O=C1c2ccccc2S(=O)(=O)N1COc1nc2ccccn2c(=O)c1Cl
1.78	1.7	COc1cc(C(C)C)c2c(c1)S(=O)(=O)N(COc1cc(=O)n3ccccc3n1)C2=O
